Data on 41 compounds can be found in patent publication US12240857B2 (priority 2017, dated 2025).

The structures appear in SMILES notation.

Data set [1] relates to BDBV mucin-domain-deleted glycoprotein pseudotyped VSV. Description: microbe, parasite or virus in culture. Conditions: Vesicular stomatitis virus, Vero, read-out: EC50 BDBV. In kind it is cell-based, Bundibugyo ebolavirus.
The nature of a further data set: in vitro. The following applies: African green monkey, CC50.
Data set [2] concerns EBOV mucin-domain-deleted glycoprotein pseudotyped VSV. In words: microbe, parasite or virus in culture. In kind it is cell-based, Zaire ebolavirus. The following applies: Zaire ebolavirus, Vero, read-out: EC50 EBOV.

What is called EC50 is the concentration needed to bring the measured effect to its halfway point.

Take `N[C@H]1CC[C@H](NC(=O)C2C3CC4CC2CC(c2ccccc2)(C4)C3)CC1` (stereo partly drawn) [Example A84]: the EC50 was 0.11 µM in data set [1] and 0.146 µM in data set [2]. The CC50 in the data set “in vitro” is 9 µM.
For `C[C@@H]1CN(C(=O)C23CC4CC(C)(C2)CC(c2ccccc2)(C4)C3)C[C@H](C)N1` (stereo partly drawn) [Example A86], in that order: 0.18 µM, 0.155 µM and 3.9 µM.
For `N[C@H]1CC[C@H](NC(=O)C23CC4CC2CC(c2ccccc2)(C4)C3)CC1` (stereo partly drawn) [Example A87], in that order: 0.19 µM, 0.14 µM and 1.4 µM.
For `O=C(NC1CCNCC1)C12CC3CC1CC(c1ccccc1)(C3)C2` (stereo not drawn) [Example A88], in that order: 0.5 µM, 0.36 µM and 12.5 µM.
`CC12CC3CC(C(=O)NC4CC5(CNC5)C4)(C1)CC(c1ccccc1)(C3)C2` (stereo not drawn) [Example A89]: the EC50 in data set [1] was found to be 0.88 µM; in data set [2], 0.25 µM. The CC50 in the data set “in vitro” came out at 40.7 µM.
Take `CC12CC3CC(C(=O)NC4CC5(CC(N)C5)C4)(C1)CC(c1ccccc1)(C3)C2` (stereo not drawn) [Example A90]: the EC50 was found to be 0.2 µM in data set [1] and 0.05 µM in data set [2]. The compound further came in with a CC50 in “in vitro” of 59 µM.
Regarding `CC12CC3CC(C(=O)N4CC5(CC(N)C5)C4)(C1)CC(c1ccccc1)(C3)C2` (stereo not drawn) [Example A91], the EC50 in data set [1] was determined as 0.19 µM; in data set [2] it was 0.12 µM. The CC50 in “in vitro” turned out to be 17.4 µM.
Take `CC12CC3CC(C(=O)NC4C[C@H]5CC[C@H](C4)N5)(C1)CC(c1ccccc1)(C3)C2` (stereo partly drawn) [Example A92]: the EC50 in data set [1] came to 0.7 µM; in data set [2], 0.19 µM. In “in vitro”, this compound gave a CC50 of 10.8 µM.
For `CC12CC3CC(C(=O)N4C5CCC4CC(N)C5)(C1)CC(c1ccccc1)(C3)C2` (stereo not drawn) [Example A93], the EC50 in data set [1] was 0.36 µM; in data set [2] it was 0.21 µM. In the data set “in vitro”, this compound returned a CC50 of 12.2 µM.
As for `N[C@H]1CC[C@H](NC(=O)C23CC4CC(C2)CC(C(F)(F)F)(C4)C3)CC1` [Example A94], the EC50 in data set [1] was 0.88 µM; in data set [2], 1 µM. In addition, the CC50 in “in vitro” came to 5.1 µM.
For `CC12CC3CC(C(=O)NCC4CCNCC4)(C1)CC(c1ccccc1)(C3)C2` (stereo not drawn) [Example A95], the EC50 worked out at 0.97 µM in data set [1] and 0.49 µM in data set [2]. This compound also yielded a CC50 in the data set “in vitro” of 23.1 µM.
For `CC12CC3CC(C(=O)N[C@H]4CC[C@H](CN)CC4)(C1)CC(c1ccccc1)(C3)C2` (stereo partly drawn) [Example A96], in that order: 0.08 µM, 0.03 µM and 11.6 µM.
As for `N[C@H]1CC[C@H](NC(=O)CC2(c3ccccc3)C3CC4CC(C3)CC2C4)CC1` (stereo partly drawn) [Example A97], the EC50 in data set [1] is 0.25 µM; in data set [2], 0.34 µM. The compound further returned a CC50 in the data set “in vitro” of 100 µM.
For `N[C@H]1CC[C@@H](NC(=O)CC2(c3ccccc3)C3CC4CC(C3)CC2C4)CC1` (stereo partly drawn) [Example A98], in that order: 0.58 µM, 1.16 µM and 11.3 µM.
For `O=C(CC1(c2ccccc2)C2CC3CC(C2)CC1C3)NC1CCNCC1` (stereo not drawn) [Example A99], in that order: 0.19 µM, 0.69 µM and 26.7 µM.
For `Cc1cccc(C23CC4CC(CC(C(=O)N[C@H]5CC[C@H](N)CC5)(C4)C2)C3)c1` [Example A100], in that order: 0.18 µM, 0.22 µM and 6.3 µM.
On to `CC12CC3CC(C(=O)N[C@H]4[C@@H]5CNC[C@@H]54)(C1)CC(c1ccccc1)(C3)C2` (stereo partly drawn) [Example A102], for which the EC50 is 0.21 µM in data set [1] and 0.12 µM in data set [2]. This compound returned a CC50 in the data set “in vitro” of 29 µM.
For `CC12CC3CC(C(=O)Nc4ccc(CN)cc4)(C1)CC(c1ccccc1)(C3)C2` (stereo not drawn) [Example A103], in that order: 0.28 µM, 0.07 µM and 7.9 µM.
For `CN(C(=O)C12CC3CC(C)(C1)CC(c1ccccc1)(C3)C2)C1CCNCC1` (stereo not drawn) [Example A104], in that order: 0.22 µM, 0.06 µM and 66 µM.
For `CC(C)C12CC3CC(C(=O)N[C@H]4CC[C@H](N)CC4)(CC(c4ccccc4)(C3)C1)C2` (stereo partly drawn) [Example A105], in that order: 1.05 µM, 0.14 µM and 35 µM.
`C[C@H]1C[C@H](NC(=O)C23CC4CC(C)(C2)CC(c2ccccc2)(C4)C3)CCN1` (stereo partly drawn) [Example A107]: the EC50 in data set [1] was found to be 0.3 µM; in data set [2], 0.046 µM. Moreover, the CC50 in “in vitro” was 14.7 µM.
Regarding `CC12CC3CC(C(=O)N[C@@H]4CCNC[C@H]4F)(C1)CC(c1ccccc1)(C3)C2` (stereo partly drawn) [Example A108], the EC50 in data set [1] is 0.21 µM; in data set [2], 0.025 µM. For the same compound, the CC50 in “in vitro” is 16.5 µM.
For `CC12CC3CC(C(=O)NC4CCNCC4(F)F)(C1)CC(c1ccccc1)(C3)C2` (stereo not drawn) [Example A109], in that order: 0.93 µM, 0.08 µM and 37 µM.
For `C[C@H]1C[C@@H](NC(=O)C23CC4CC(C)(C2)CC(c2ccccc2)(C4)C3)CCN1` (stereo partly drawn) [Example A110], in that order: 0.19 µM, 0.021 µM and 17.5 µM.
Turning to `CC12CC3CC(C(=O)NC4CCNCC4(C)C)(C1)CC(c1ccccc1)(C3)C2` (stereo not drawn) [Example A111], the EC50 in data set [1] came to 0.15 µM; in data set [2] it was 0.018 µM. The CC50 in the data set “in vitro” was 10.7 µM.
Turning to `CC1CNCCC1NC(=O)C12CC3CC(C)(C1)CC(c1ccccc1)(C3)C2` (stereo not drawn) [Example A112], the EC50 in data set [1] turned out to be 0.26 µM; in data set [2], 0.037 µM. This compound yielded a CC50 in “in vitro” of 7.2 µM.
For `COC(=O)C12CC3CC(C(=O)N[C@H]4CC[C@H](N)CC4)(C1)CC(c1ccccc1)(C3)C2` (stereo partly drawn) [Example A115], in that order: more than 1 µM, 0.98 µM and 59 µM.
For `CC12CC3CC(C(=O)Nc4ccncc4)(C1)CC(c1ccccc1)(C3)C2` (stereo not drawn) [Example A201, 3-methyl-5-phenyl-N-(pyridin-4-yl)adamantane-1-carboxamide], in that order: more than 1 µM, 1.1 µM and 16.4 µM.
With `CC12CC3CC(C(=O)NCc4ncc[nH]4)(C1)CC(c1ccccc1)(C3)C2` (stereo not drawn) [Example A202, N-(1H-imidazol-2-ylmethyl)-3-methyl-5-phenyladamantane-1-carboxamide], the EC50 in data set [1] is 0.96 µM; in data set [2], 0.59 µM. The compound further showed a CC50 in “in vitro” of 41.5 µM.
For `CC12CC3CC(C(=O)Nc4ccnc(N)c4)(C1)CC(c1ccccc1)(C3)C2` (stereo not drawn) [Example A203, N-(2-aminopyridin-4-yl)-3-methyl-5-phenyladamantane-1-carboxamide], the EC50 in data set [1] is 1.02 µM; in data set [2], 0.91 µM. The compound also had a CC50 in the data set “in vitro” of 3.9 µM.
Turning to `[O-][S+](NC1CCNCC1)C12CC3CC(CC(C3)C1)C2` (stereo not drawn) [Example A204, N-(piperidin-4-yl)adamantane-1-sulfinamide], the EC50 in data set [1] and in data set [2] was more than 1 µM in each case. In “in vitro”, the CC50 is more than 100 µM.
With `O=S(=O)(NC1CCNCC1)C12CC3CC(CC(C3)C1)C2` [Example A205, N-(piperidin-4-yl)adamantane-1-sulfonamide], the EC50 in data set [1] and in data set [2] was more than 1 µM each time. Also, in “in vitro”, the CC50 turned out to be 37 µM.
Turning to `CN1CCN(CC23CC4CC(C2)CC(c2ccccc2)(C4)C3)CC1` [Example C1], the EC50 in data set [1] is 0.206 µM; in data set [2] it was 0.18 µM. For the same compound, the CC50 in the data set “in vitro” is 5.8 µM.
For `CC12CC3CC(CNC4CCNCC4)(C1)CC(c1ccccc1)(C3)C2` (stereo not drawn) [Example C3, N-((3-methyl-5-phenyladamantan-1-yl)methyl)piperidin-4-amine], in that order: 0.21 µM, 0.234 µM and 1.8 µM.
For `CC1CCN(CCCOc2ccc(C34CC5CC(CC(C5)C3)C4)cc2)CC1` [Example C4, 1-(3-(4-(adamantan-1-yl)phenoxy)propyl)-4-methylpiperidine], in that order: 0.4 µM, 0.14 µM and 7.2 µM.
Consider `c1cc(C23CC4CC(CC(C4)C2)C3)ccc1OCCCN1CCCCC1` [Example C5, 1-(3-(4-(adamantan-1-yl)phenoxy)propyl)piperidine], for which the results for the EC50 in data set [1] and in data set [2] were 0.55 µM and 0.14 µM, respectively. The compound also yielded a CC50 in “in vitro” of 14.3 µM.
For `CN1CCN(CCCOc2ccc(C34CC5CC(CC(C5)C3)C4)cc2)CC1` [Example C6, 1-(3-(4-(adamantan-1-yl)phenoxy)propyl)-4-methylpiperazine], in that order: 0.64 µM, 0.12 µM and 3.8 µM.
For `CC1CCN(CC(O)CCOc2ccc(C34CC5CC(CC(C5)C3)C4)cc2)CC1` (stereo not drawn) [Example C7, 4-(4-(adamantan-1-yl)phenoxy)-1-(4-methylpiperidin-1-yl)butan-2-ol], the values for the half-maximal effective concentration (EC50) in data set [1] and in data set [2] were 0.77 µM and 0.47 µM, respectively. In “in vitro”, this compound showed a CC50 of 4.1 µM.
For `OC(CCOc1ccc(C23CC4CC(CC(C4)C2)C3)cc1)CN1CCCCC1` (stereo not drawn) [Example C8, 4-(4-(adamantan-1-yl)phenoxy)-1-(piperidin-1-yl)butan-2-ol], in that order: 0.29 µM, 0.14 µM and 1.3 µM.
For `CN1CCN(CC(O)CCOc2ccc(C34CC5CC(CC(C5)C3)C4)cc2)CC1` (stereo not drawn) [Example C9, 4-(4-(adamantan-1-yl)phenoxy)-1-(4-methylpiperazin-1-yl)butan-2-ol], in that order: 0.99 µM, 0.66 µM and 8.3 µM.
Take `CC1CCN(C[C@H](O)COCC23CC4CC(C2)CC(c2ccccc2)(C4)C3)CC1` [Example C10, (2S)-1-(4-methylpiperidin-1-yl)-3-[(3-phenyladamantan-1-yl)methoxy]propan-2-ol]: the figures for the EC50 in data set [1] and in data set [2] were 0.17 µM and 0.19 µM, respectively. Besides, the CC50 in “in vitro” was determined as 3.6 µM.
